In article PMC8704707 (Pharmaceuticals, 2021):
Values after ≈ are worked out from the molar mass of the structure shown. Values joined by “and” are separate entries in the source; they are usually repeats but may differ in a detail not shown here. Identical values can stand only once. Counter-ions that a name gives are not always drawn. Like-named read-outs stand apart in the source and are kept apart here.

Experiments:
[1] = tested on: Staphylococcus aureus ATCC 29213; test: Antibacterial microdilution broth method (EUCAST); assay type: cell-based
[2] = tested on: methicillin-resistant Staphylococcus aureus ATCC 43300; test: Antibacterial microdilution broth method (EUCAST); assay type: cell-based; details: ATCC 43300 / MRSA
[3] = tested on: Staphylococcus epidermidis ATCC 12228; test: Antibacterial microdilution broth method (EUCAST); assay type: cell-based
[4] = tested on: Enterococcus faecalis ATCC 29212; test: Antibacterial microdilution broth method (EUCAST); assay type: cell-based
[5] = tested on: Escherichia coli ATCC 25922; test: Antibacterial microdilution broth method (EUCAST); assay type: cell-based
[6] = tested on: Acinetobacter baumannii ATCC 19606; test: Antibacterial microdilution broth method (EUCAST); assay type: cell-based
[7] = tested on: Pseudomonas aeruginosa ATCC 27853; test: Antibacterial microdilution broth method (EUCAST); assay type: cell-based
[8] = tested on: Candida albicans ATCC 24443; test: microbe, parasite or virus in culture; assay type: cell-based
[9] = tested on: Candida krusei ATCC 6258; test: microbe, parasite or virus in culture; assay type: cell-based; details: Pichia kudriavzevii
[10] = tested on: Candida parapsilosis ATCC 22019; test: microbe, parasite or virus in culture; assay type: cell-based; details: Lodderomyces parapsilosis
[11] = tested on: Candida tropicalis ATCC 750; test: microbe, parasite or virus in culture; assay type: cell-based
[12] = tested on: Trichophyton interdigitale ATCC 9533; test: microbe, parasite or virus in culture; assay type: cell-based
[13] = target: AChE from electric eel (EeAChE) (Electrophorus electricus, UniProt O42275); test: biochemical; assay type: biochemical
[14] = target: BuChE from equine serum (EqBuChE) (Equus caballus, UniProt P81908); test: biochemical
[15] = tested on: Klebsiella pneumoniae ATCC 10031; details: for MIC KP 24 h: 24 h incubation; for MIC KP 48 h: 48 h incubation
[16] = ATCC29213, 24 h, read-out: MIC SA 24 h
[17] = ATCC29213, 48 h, read-out: MIC SA 48 h
[18] = ATCC12228, 24 h, read-out: MIC SE 24 h
[19] = ATCC12228, 48 h, read-out: MIC SE 48 h
[20] = ATCC29212, 24 h, read-out: MIC EF 24 h
[21] = ATCC29212, 48 h, read-out: MIC EF 48 h
[22] = ATCC25922, 24 h, read-out: MIC EC 24 h
[23] = ATCC25922, 48 h, read-out: MIC EC 48 h
[24] = ATCC19606, 24 h, read-out: MIC ACI 24 h
[25] = ATCC19606, 48 h, read-out: MIC ACI 48 h
[26] = ATCC27853, 24 h, read-out: MIC PA 24 h
[27] = ATCC27853, 48 h, read-out: MIC PA 48 h
[28] = mean ± SD, n = three independent experiments, ATCh 40 µM, read-out: IC50 AChE
[29] = mean ± SD, n = three independent experiments, BTCh 40 µM, read-out: IC50 BuChE

BuChE from equine serum (EqBuChE), sequence (P81908 whole entry): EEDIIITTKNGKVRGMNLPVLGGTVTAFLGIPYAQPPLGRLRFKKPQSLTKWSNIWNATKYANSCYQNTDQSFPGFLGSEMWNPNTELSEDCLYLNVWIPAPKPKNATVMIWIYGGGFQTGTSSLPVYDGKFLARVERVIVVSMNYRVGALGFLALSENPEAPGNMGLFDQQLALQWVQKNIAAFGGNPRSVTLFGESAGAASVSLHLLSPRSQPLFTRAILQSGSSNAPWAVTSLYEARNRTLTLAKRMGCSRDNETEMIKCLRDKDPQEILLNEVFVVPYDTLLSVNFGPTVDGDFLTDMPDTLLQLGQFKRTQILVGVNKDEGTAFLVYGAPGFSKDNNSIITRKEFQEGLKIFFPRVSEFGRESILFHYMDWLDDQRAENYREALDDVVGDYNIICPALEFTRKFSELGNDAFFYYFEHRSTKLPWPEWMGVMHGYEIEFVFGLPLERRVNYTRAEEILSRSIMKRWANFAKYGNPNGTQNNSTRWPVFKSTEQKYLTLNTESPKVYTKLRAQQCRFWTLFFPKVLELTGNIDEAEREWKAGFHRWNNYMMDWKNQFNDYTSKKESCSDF
AChE from electric eel (EeAChE), sequence (O42275 24-633): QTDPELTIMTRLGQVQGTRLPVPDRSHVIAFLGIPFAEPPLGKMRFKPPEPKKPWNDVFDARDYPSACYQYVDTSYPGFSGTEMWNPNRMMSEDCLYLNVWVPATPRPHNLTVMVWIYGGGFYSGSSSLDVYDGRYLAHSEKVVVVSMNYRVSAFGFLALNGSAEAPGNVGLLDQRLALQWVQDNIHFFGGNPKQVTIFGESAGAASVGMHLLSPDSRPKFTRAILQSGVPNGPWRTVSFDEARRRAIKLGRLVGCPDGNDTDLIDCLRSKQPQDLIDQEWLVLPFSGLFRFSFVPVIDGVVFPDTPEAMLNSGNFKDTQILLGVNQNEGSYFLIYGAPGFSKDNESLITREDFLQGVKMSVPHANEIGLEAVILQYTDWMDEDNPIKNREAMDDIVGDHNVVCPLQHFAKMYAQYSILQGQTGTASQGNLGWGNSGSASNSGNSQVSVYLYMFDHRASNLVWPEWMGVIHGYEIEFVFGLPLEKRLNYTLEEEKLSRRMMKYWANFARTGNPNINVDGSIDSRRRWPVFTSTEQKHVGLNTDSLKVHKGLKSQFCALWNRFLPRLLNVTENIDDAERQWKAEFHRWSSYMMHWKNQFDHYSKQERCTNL

| SMILES | MIC [1, 16] [µM] | MIC [1, 17] [µM] | MIC ([2]; 24 h, read-out: MIC MRSA 24 h) [µM] | MIC ([2]; 48 h, read-out: MIC MRSA 48 h) [µM] | MIC [3, 18] [µM] | MIC [3, 19] [µM] | MIC [4, 20] [µM] | MIC [4, 21] [µM] | MIC [5, 22] [µM] | MIC [5, 23] [µM] | MIC [6, 24] [µM] | MIC [6, 25] [µM] | MIC [7, 26] [µM] | MIC [7, 27] [µM] | Selectivity AChE/BuChE [13] | IC50 [13, 28] [µM] | IC50 [14, 29] | MIC KP 24 h [15] [µM] | MIC KP 48 h [15] [µM] | also measured |
| --- | --- | --- | --- | --- | --- | --- | --- | --- | --- | --- | --- | --- | --- | --- | --- | --- | --- | --- | --- | --- |
| [H]/N=C(\N)NN=Cc1cc(Cl)cc(I)c1O [Compound 1l, (E)-2-(5-Chloro-2-hydroxy-3-iodobenzylidene)hydrazine-1-carboximidamide] | 500 (≈ 169 µg/mL) | 500 (≈ 169 µg/mL) | 250 (≈ 84.6 µg/mL) | 250 (≈ 84.6 µg/mL) | 250 (≈ 84.6 µg/mL) | 250 (≈ 84.6 µg/mL) | 250 (≈ 84.6 µg/mL) | 250 (≈ 84.6 µg/mL) | 250 (≈ 84.6 µg/mL) | 250 (≈ 84.6 µg/mL) | 500 (≈ 169 µg/mL) | 500 (≈ 169 µg/mL) | > 500 | > 500 | 4.08 | 22.1 ± 0.55 | < 20 µM and 5.42 µM | 250 (≈ 84.6 µg/mL) | 250 (≈ 84.6 µg/mL) | MIC ([8]; ATCC24443, 24 h, read-out: MIC CA 24 h): > 500 µM; MIC ([8]; ATCC24443, 48 h, read-out: MIC CA 48 h): > 500 µM; MIC ([9]; ATCC6258, 24 h, read-out: MIC CK 24 h): 500 µM (≈ 169 µg/mL); MIC ([9]; ATCC6258, 48 h, read-out: MIC CK 48 h): 500 µM (≈ 169 µg/mL); MIC ([10]; ATCC22019, 24 h, read-out: MIC CP 24 h): 500 µM (≈ 169 µg/mL); MIC ([10]; ATCC22019, 48 h, read-out: MIC CP 48 h): 500 µM (≈ 169 µg/mL); MIC ([11]; ATCC750, 24 h, read-out: MIC CT 24 h): 500 µM (≈ 169 µg/mL); MIC ([11]; ATCC750, 48 h, read-out: MIC CT 48 h): 500 µM (≈ 169 µg/mL); MIC ([12]; ATCC9533, 72 h, read-out: MIC TI 72 h): 125 µM (≈ 42.3 µg/mL); MIC ([12]; ATCC9533, 120 h, read-out: MIC TI 120 h): 125 µM (≈ 42.3 µg/mL) |
| [H]/N=C(\N)NN=Cc1ccco1 [Compound 3a, (E)-2-(Furan-2-ylmethylene)hydrazine-1-carboximidamide] |  |  |  |  |  |  |  |  |  |  |  |  |  |  | 0.50 | 41.1 ± 0.54 | 82.3 ± 3.02 µM |  |  |  |
| N=C(N/N=C/c1ccc([N+](=O)[O-])o1)N/N=C/c1ccc([N+](=O)[O-])o1 [Compound 3c, (E)-2-[(5-Nitrofuran-2-yl)methylene]-N’-[(E)-(5-nitrofuran-2-yl)methylene]hydrazine-1-carboximidamide hydrochloride] |  |  |  |  |  |  |  |  |  |  |  |  |  |  | <0.08 |  |  |  |  | IC50 [13]: 40 ± 2.56 µM; IC50 ([14]; IC50 BuChE): > 500 µM |
| NC(=O)N/N=C/c1ccc([N+](=O)[O-])o1 [Compound 3d, (E)-2-[(5-Nitrofuran-2-yl)methylene]hydrazine-1-carboxamide] | 62.5 (≈ 12.4 µg/mL) | 125 (≈ 24.8 µg/mL) | 62.5 (≈ 12.4 µg/mL) | 125 (≈ 24.8 µg/mL) | 31.2 (≈ 6.19 µg/mL) | 62.5 (≈ 12.4 µg/mL) | 500 (≈ 99.1 µg/mL) | 500 (≈ 99.1 µg/mL) | 125 (≈ 24.8 µg/mL) | 250 (≈ 49.5 µg/mL) | > 500 | > 500 | > 500 | > 500 | <0.07 | 36.6 ± 0.69 | > 500 µM | 62.5 (≈ 12.4 µg/mL) | 125 (≈ 24.8 µg/mL) |  |
| OC(Cn1cncn1)(Cn1cncn1)c1ccc(F)cc1F [FLU, fluconazole, reference compound] |  |  |  |  |  |  |  |  |  |  |  |  |  |  |  |  |  |  |  | IC50 ([8]; ATCC24443, 24 h, read-out: IC50 (50% growth inhibition) CA 24 h): 6.5 µM; IC50 ([8]; ATCC24443, 48 h, read-out: IC50 (50% growth inhibition) CA 48 h): 6.5 µM; IC50 ([9]; ATCC6258, 24 h, read-out: IC50 (50% growth inhibition) CK 24 h): > 104 µM; IC50 ([9]; ATCC6258, 48 h, read-out: IC50 (50% growth inhibition) CK 48 h): > 104 µM; IC50 ([10]; ATCC22019, 24 h, read-out: IC50 (50% growth inhibition) CP 24 h): 3.3 µM; IC50 ([10]; ATCC22019, 48 h, read-out: IC50 (50% growth inhibition) CP 48 h): 3.3 µM; IC50 ([11]; ATCC750, 24 h, read-out: IC50 (50% growth inhibition) CT 24 h): 6.5 µM; IC50 ([11]; ATCC750, 48 h, read-out: IC50 (50% growth inhibition) CT 48 h): 6.5 µM; IC50 ([12]; ATCC9533, 72 h, read-out: IC50 (50% growth inhibition) TI 72 h): 52.2 µM; IC50 ([12]; ATCC9533, 120 h, read-out: IC50 (50% growth inhibition) TI 120 h): 52.2 µM |
| CCN1CCN(C(=O)N[C@@H](C(=O)N[C@@H]2C(=O)N3[C@@H]2SC(C)(C)[C@@H]3C(=O)O)c2ccccc2)C(=O)C1=O [PIP, piperacillin sodium salt, reference compound] | 1.85 | 1.85 | 14.8 | 14.8 | > 59.3 | > 59.3 | 1.85 | 1.85 | 7.41 | 7.41 | > 59.3 | > 59.3 | 14.8 | 14.8 |  |  |  | >59.31 | >59.31 |  |
